The text below walks through data of US20240415825A1, “COMPOUNDS FOR THE TREATMENT OF MALARIA” (FUNDACIÓ INSTITUT DE BIOENGINYERIA DE CATALUNYA, priority 2021, published 2024).

One data set concerns P. falciparum 3D7 strain. The data set can be described thus: P. falciparum growth inhibition assay (3D7 strain). The format is cell-based, Plasmodium falciparum. As to the method:
After the synchronization process, a new culture at 1.5% parasitemia and 2% hematocrit was established and 150 μL aliquots of it were transferred to 96-well plates.
The required amounts of peptides, antimalarial compounds and dyes were added in each well at different concentrations and in triplicates. A positive growth control of untreated parasites and a negative growth control of parasites treated with a lethal dose of chloroquine (1 μM) were also included.
Parasites were grown for 48 h, a complete replication cycle, in standard culturing conditions (5% O2, 5% CO2, and 90% N2 at 37° C.). After the incubation period, 3 μL of culture from each well were mixed with 197 μL of PBS containing 0.1 μM Syto 11 (Thermo Fisher Scientific Inc), to obtain a final concentration of ca. 1-10×10^6 cells/ml.
Parasitemia was assessed by flow cytometry using a LSRFortessa flow cytometer (BD Biosciences, San Jose, CA, USA) set up with the 4 lasers, 20 parameters standard configuration. The single-cell population was selected on a forward-side scatter scattergram.
Growth inhibition was calculated taking as reference values both the growth rate of the untreated culture and the growth rate of the culture treated with chloroquine.

Data set [1] concerns human umbilical vein endothelial cell cultures. The data set can be described thus: Cytotoxicity (CC50) and in vitro therapeutic index. The following applies: 50% cytotoxic concentration (CC50)/IC50 in 3D7 strain. In kind it is cell-based.
[2] abbreviates: Plasmodium falciparum, 3D7 strain, Example 8, read-out: IC50 in 3D7 strain.

The structures appear in SMILES notation. Where two headings read alike, the source gives them in different places.

Broadly, the IC50 is the point on the concentration scale where inhibition reaches its midpoint. `CCN(CC)c1ccc(/C=C/c2cc[n+](CCCC[n+]3ccc(/C=C/c4ccc(N(CC)CC)cc4)c(C)c3)cc2C)cc1` [PRC-5, 1,1′-(butane-1,4-diyl)bis{4-[(E)-4-(diethylamino)styryl]-3-methylpyridin-1-ium} dibromide]: the IC50 in the data set on P. falciparum 3D7 strain (setting [2]) came out at 0.42 µM.

With `CCN(CC)c1ccc(/C=C/c2cc[n+](CCCCCCCCCCCC[n+]3ccc(/C=C/c4ccc(N(CC)CC)cc4)c(C)c3)cc2C)cc1.[Br-].[Br-]` [PRC-15, 1,1′-(dodecane-1,12-diyl)bis{4-[(E)-4-(diethylamino)styryl]-3-methylpyridin-1-ium} dibromide], the “antimalarial / antiplasmodial activity in vitro” value in the data set on P. falciparum 3D7 strain (3D7 strain) is “potent antimalarial activity”. For the same molecule, in the data set on P. falciparum 3D7 strain (setting [2]), the half-maximal inhibitory concentration (IC50) is 0.06 µM.

With `CCN(CC)c1ccc(/C=C/c2cc[n+](CCCCCCCC[n+]3ccc(/C=C/c4ccc(N(CC)CC)cc4)c(C)c3)cc2C)cc1.[Br-].[Br-]` [PRC-8, 1,1′-(octane-1,8-diyl)bis{4-[(E)-4-(diethylamino)styryl]-3-methylpyridin-1-ium} dibromide], in the data set with P. falciparum 3D7 strain (3D7 strain), the “antimalarial / antiplasmodial activity in vitro” value is recorded as “potent antimalarial activity”. In the data set with P. falciparum 3D7 strain (setting [2]), the half-inhibitory concentration (IC50) was 0.14 µM.

For `CCN(CC)c1ccc(/C=C/c2cc[n+](CCCCCCCCC[n+]3ccc(/C=C/c4ccc(N(CC)CC)cc4)c(C)c3)cc2C)cc1.[Br-].[Br-]` [PRC-25, 1,1′-(nonane-1,9-diyl)bis{4-[(E)-4-(diethylamino)styryl]-3-methylpyridin-1-ium} dibromide], in the data set on P. falciparum 3D7 strain (3D7 strain), the “antimalarial / antiplasmodial activity in vitro” value was “potent antimalarial activity”. For the same molecule, the half-maximal inhibitory concentration (IC50) in the data set on P. falciparum 3D7 strain (setting [2]) came to 0.05 µM; with P. falciparum 3D7 strain (Plasmodium falciparum, 3D7 strain, read-out: IC50 in P. falciparum in vitro cultures), 0.047 µM.

On to `Cc1c[n+](CCCCCCCCCC[n+]2ccc(/C=C/c3ccc(N4CCCC4)cc3)c(C)c2)ccc1/C=C/c1ccc(N2CCCC2)cc1` [EMA368, 1,1′-(decane-1,10-diyl)bis{3-methyl-4-[(E)-4-(pyrrolidin-1-yl)styryl]pyridin-1-ium} dibromide], for which the IC50 in the data set with P. falciparum 3D7 strain (setting [2]) was 0.29 µM.

Consider `O=C(NCNc1c2c(nc3cc(Cl)ccc13)CCCC2)c1ccc2nc(-c3ccc(Cl)cc3)c3c(c2c1)NCCC3` [DP128, reference compound], for which, in data set [1], the “Therapeutic index in vitro” value amounted to 75.4. Further, the IC50 with P. falciparum 3D7 strain (Plasmodium falciparum, 3D7, 48 h, read-out: IC50 in 3D7 strain (μM) ± SEM) is 0.65 ± 0.14 µM.

With `Cc1c[n+](CCCCCCCCCC[n+]2ccc(/C=C/c3ccc(N4CCOCC4)cc3)c(C)c2)ccc1/C=C/c1ccc(N2CCOCC2)cc1.[Br-].[Br-]` [EMA377, 1,1′-(decane-1,10-diyl)bis{3-methyl-4-[(E)-4-morpholinostyryl]pyridin-1-ium} dibromide], the “antimalarial / antiplasmodial activity in vitro” value in the data set on P. falciparum 3D7 strain (3D7 strain) is on record as “potent antimalarial activity”. For the same molecule, the IC50 in the data set with P. falciparum 3D7 strain (setting [2]) came to 0.06 µM.

Consider `CCN(CC)c1ccc(/C=C/c2cc[n+](CCOCCOCC[n+]3ccc(/C=C/c4ccc(N(CC)CC)cc4)c(C)c3)cc2C)cc1` [PRC-20, 1,1′-(3,6-dioxaoctane-1,8-diyl)bis{4-[(E)-4-(diethylamino)styryl]-3-methylpyridin-1-ium} diiodide], for which, in the data set on P. falciparum 3D7 strain (setting [2]), the IC50 was 0.2 µM.

With `CCN(CC)c1ccc(/C=C/c2cc[n+](Cc3ccc(C[n+]4ccc(/C=C/c5ccc(N(CC)CC)cc5)c(C)c4)cc3)cc2C)cc1` [PRC-29, 1,1′-[1,4-phenylenebis(methylene)]bis{4-[(E)-4-(diethylamino)styryl]-3-methylpyridin-1-ium} dibromide], the half-maximal inhibitory concentration (IC50) in the data set with P. falciparum 3D7 strain (setting [2]) was determined as 0.46 µM.

Consider `CCN(CC)c1ccc(/C=C/c2cc[n+](CCOCCOCCOCC[n+]3ccc(/C=C/c4ccc(N(CC)CC)cc4)c(C)c3)cc2C)cc1` [PRC-28, 1,1′-(3,6,9-trioxaundecane-1,11-diyl)bis{4-[(E)-4-(diethylamino)styryl]-3-methylpyridin-1-ium} dichloride], for which the half-inhibitory concentration (IC50) in the data set on P. falciparum 3D7 strain (setting [2]) was 0.25 µM.

In the case of `CCN(CC)c1ccc(/C=C/c2cc[n+](CCCCCCCCCC[n+]3ccc(/C=C/c4ccc(N(CC)CC)cc4)cc3)cc2)cc1.[Br-].[Br-]` [PRC-39, 1,1′-(decane-1,10-diyl)bis{4-[(E)-4-(diethylamino)styryl]pyridin-1-ium} dibromide], in the data set on P. falciparum 3D7 strain (3D7 strain), the “antimalarial / antiplasmodial activity in vitro” value was “potent antimalarial activity”. In addition, the IC50 with P. falciparum 3D7 strain (setting [2]) turned out to be 0.15 µM.

Regarding `Cc1ccc2c(c1)sc(-c1ccc(N(C)C)cc1)[n+]2C.[Cl-]` [ThT, Thioflavin T, reference compound], the “antimalarial / antiplasmodial activity in vitro” value in the data set with P. falciparum 3D7 strain (3D7 strain) is on record as “did not exhibit significant antiplasmodial activity”. Moreover, the IC50 in the data set with P. falciparum 3D7 strain (Plasmodium falciparum, 3D7 strain, 48 h, Table 2, read-out: IC50 in 3D7 strain (μM) ± SEM) was determined as 1.57 ± 0.23 µM.

Consider `Cc1c[n+](CCCCCCCCCC[n+]2ccc(/C=C/c3ccc(N(C)C)cc3)c(C)c2)ccc1/C=C/c1ccc(N(C)C)cc1.[Br-].[Br-]` [EMA357, 1,1′-(decane-1,10-diyl)bis{4-[(E)-4-(dimethylamino)styryl]-3-methylpyridin-1-ium} dibromide], for which the “antimalarial / antiplasmodial activity in vitro” value with P. falciparum 3D7 strain (3D7 strain) was “potent antimalarial activity”. Further, the IC50 with P. falciparum 3D7 strain (setting [2]) turned out to be 0.12 µM.

Regarding `CCN(CC)c1ccc(/C=C/c2cc[n+](CCCCCCCCCCC[n+]3ccc(/C=C/c4ccc(N(CC)CC)cc4)c(C)c3)cc2C)cc1.[Br-].[Br-]` [PRC-14, 1,1′-(undecane-1,11-diyl)bis{4-[(E)-4-(diethylamino)styryl]-3-methylpyridin-1-ium} dibromide], the “antimalarial / antiplasmodial activity in vitro” value with P. falciparum 3D7 strain (3D7 strain) was “potent antimalarial activity”. Besides, the half-maximal inhibitory concentration (IC50) in the data set with P. falciparum 3D7 strain (setting [2]) came out at 0.06 µM.

With `CCN(CC)c1ccc(/C=C/c2cc[n+](Cc3cccc(C[n+]4ccc(/C=C/c5ccc(N(CC)CC)cc5)c(C)c4)c3)cc2C)cc1` [PRC-31, 1,1′-[1,3-phenylenebis(methylene)]bis{4-[(E)-4-(diethylamino)styryl]-3-methylpyridin-1-ium} dibromide], in the data set with P. falciparum 3D7 strain (setting [2]), the half-maximal inhibitory concentration (IC50) worked out at 0.54 µM.

For `Cc1c[n+](CCCCCCCCCC[n+]2ccc(/C=C/c3ccc(N(C)CCC#N)cc3)c(C)c2)ccc1/C=C/c1ccc(N(C)CCC#N)cc1.[Br-].[Br-]` [EMA359, 1,1′-(decane-1,10-diyl)bis{4-{(E)-4-[(2-cyanoethyl)methylamino]styryl}-3-methylpyridin-1-ium} dibromide], in the data set on P. falciparum 3D7 strain (3D7 strain), the “antimalarial / antiplasmodial activity in vitro” value is “potent antimalarial activity”. For the same molecule, the concentration for half-maximal inhibition (IC50) in the data set with P. falciparum 3D7 strain (setting [2]) is 0.11 µM.

For `CCN(CC)c1ccc(/C=C/c2cc[n+](CCCCCCCCCC[n+]3ccc(/C=C/c4ccc(N(CC)CC)cc4)c(Br)c3)cc2Br)cc1.[Br-].[Br-]` [PRC-42, 1,1′-(decane-1,10-diyl)bis{3-bromo-4-[(E)-4-(diethylamino)styryl]pyridin-1-ium} dibromide], the “antimalarial / antiplasmodial activity in vitro” value in the data set on P. falciparum 3D7 strain (3D7 strain) is on record as “potent antimalarial activity”. Also, the half-maximal inhibitory concentration (IC50) with P. falciparum 3D7 strain (setting [2]) worked out at 0.1 µM.

As for `Nc1c(/N=N/c2ccc(-c3ccc(/N=N/c4cc(S(=O)(=O)[O-])c5ccccc5c4N)cc3)cc2)cc(S(=O)(=O)[O-])c2ccccc12.[Na+].[Na+]` [Congo Red, reference compound], the “antimalarial / antiplasmodial activity in vitro” value with P. falciparum 3D7 strain (3D7 strain) is “did not exhibit significant antiplasmodial activity”. Moreover, in the data set with P. falciparum 3D7 strain (3D7 strain, 48 h, Table 2, read-out: IC50 in 3D7 strain (μM) ± SEM), the half-maximal inhibitory concentration (IC50) was greater than 15 µM.

In the case of `Cc1c[n+](CCCCCCCCCC[n+]2ccc(/C=C/c3ccc(N(c4ccccc4)c4ccccc4)cc3)c(C)c2)ccc1/C=C/c1ccc(N(c2ccccc2)c2ccccc2)cc1` [EMA366, 1,1′-(decane-1,10-diyl)bis{4-[(E)-4-(diphenylamino)styryl]-3-methylpyridin-1-ium} dibromide], the 50% inhibitory concentration (IC50) in the data set on P. falciparum 3D7 strain (setting [2]) came to 0.52 µM.

Turning to `CCN(CC)c1ccc(/C=C/c2cc[n+](CCCCCCCCCC[n+]3ccc(/C=C/c4ccc(N(CC)CC)cc4)c(Cl)c3)cc2Cl)cc1.[Br-].[Br-]` [PRC-50, 1,1′-(decane-1,10-diyl)bis{3-chloro-4-[(E)-4-(diethylamino)styryl]pyridin-1-ium} dibromide], the “antimalarial / antiplasmodial activity in vitro” value in the data set with P. falciparum 3D7 strain (3D7 strain) is on record as “potent antimalarial activity”. Also, the IC50 in the data set on P. falciparum 3D7 strain (setting [2]) worked out at 0.1 µM.
